The nature of series [1]: C8 chromatography (RP-HPLC), logkw from two gradients with DryLab. It is filed as physicochemical. Particulars: for logkw, Table S4: C8 chromatography, pH 7.4, short and long gradient; for logkwC8: pH 7.4, 40 °C, retention factor extrapolated to 0% organic modifier. The source says:
(§1) For this reason, the next step of our study concerns the characterization of investigated sulfonamide derivatives using a chromatographic approach. Generally, in RP-HPLC, the interactions between solutes and the stationary phase surface are mainly governed by lipophilicity. Consequently, RP-HPLC is the primary tool for assessing the lipophilicity of xenobiotics. […] Generally, the chemical character of target solutes determines interactions between the molecule and the stationary phase that may occur. Considering the large variety of RP-HPLC beds and differences in specific surface area, the energy of the sorbent’s intermolecular interactions between solutes and chemical structures, four different reversed-phase stationary phases and IAM column were investigated during this study. The lipophilicity index was presented as a logkw value, so the retention factor was extrapolated to the pure water after calculation using a protocol based on two gradient measurements and DryLab software.
(§2) Since the biomimetic chromatography experiments are carried out at physiological pH to compare obtained results, all chromatographic experiments have been carried out at pH 7.4. […] Consequently, the chromatography lipophilicity indices refer to the distribution coefficient (logD) values, which better reflect the lipophilicity of ionized substances under physiological conditions.
(§3) For C8, cyanopropyl, and phenyl chromatography, according to the assumption proposed by Snyder and co-workers, appropriate logkw values (i.e., the retention factor logk extrapolated to 0% organic modifier, as an alternative to logP) were obtained. […] Dwell volume for these HPLC systems was measured at 0.780 mL, whereas the obtained dead times for used HPLC columns were equal to 1.530 min, 1.252 min, and 2.335 min for C8, SB-CN, and UK-Phenyl, respectively. The mobile phase was ammonium acetate buffer (50 mM) at pH 7.4 and acetonitrile as an organic modifier in each system. C8 chromatography was performed on Unison UK-C8 column (150 × 2 mm; 3.0 µm. Imtakt; USA) with 0.3 mL/min flow rate. Analyses were carried out in linear gradient from 30 to 100% within 15 min in short gradient and 30 min in long gradient. The Agilent SB-CN column (150 × 4.6 mm; 3.5 µm; Zorbax; USA) was used for the cyanopropyl chromatography. The CN chromatography analyses were carried out in linear gradient from 20 to 100%, which was applied from 0 to 20 min in short gradient, and from 0 to 40 min in long gradient. The flow rate was 1.5 mL/min. The column Unison UK-Phenyl (150 × 2 mm; 3.0 µm; Imtakt; USA) was used to perform phenyl chromatography. The flow rate was set to 0.2 mL/min. The phenyl analyses were carried out in linear gradient from 40 to 100%, which was applied from 0 to 20 min in short gradient, and from 0 to 40 min in long gradient. Each HPLC analysis was run in triplicate; in Tables S2–S6, obtained retention times are listed, whereas representative chromatograms are shown in Figure 9.

Series [2] can be described thus: C18 chromatography (RP-HPLC), chromatographic hydrophobicity index. It counts as physicochemical. The conditions noted are these: for chromatographic logD: Waters Symmetry C18 column, CHI log D = 0.0525 CHIC18 − 1.467, pH 7.4; for CHIC18: pH 7.4, 40 °C, acetonitrile gradient.
Excerpt: as §1, §2
(§4) All HPLC experiments were carried out using a Prominence-1 LC-2030C 3D HPLC system (Shimadzu, Japan) equipped with a DAD detector and controlled by the LabSolution system (version 5.90 Shimadzu, Japan). The stock solutions of solutes were diluted to obtain 100 μg/mL concentrations, and the injected volume was 10 μL. During this study, six different columns in terms of chemical modification of stationary phases were used. Retention times (tR) of investigated sulfonamides were collected, and their detection in all systems was performed at the wavelength characteristic for each compound, summarized in Table S1. For all chromatography systems, analysis was carried out at 40 °C, except for IAM chromatography, in which oven temperature was set to 30 °C. The CHIIAM and CHI18 indices of the target sulfonamides derivatives were obtained using the protocol proposed by Valko and co-workers. C18 chromatography was performed on a Waters-C18 column (150 mm × 3.9 mm; 5.0 µm; Symmetry; USA), with a 1.5 mL/min flow rate. The mobile phase was ammonium acetate buffer (50 mM) at pH 7.4 and acetonitrile as an organic modifier. The linear gradient from 2 to 98% ACN was applied from 0 to 30 min. IAM chromatography was executed on an IAM.PC.DD2 column ([…] × 4.6 mm; 10.0 µm; Regis Technologies, Morton Grove, IL, USA) additionally equipped with an IAM guard column with the same flow rate of 1.5 mL/min. The mobile phase was sodium phosphate buffer (10 mM) at pH 7.4 and acetonitrile as the organic phase. The linear gradient from 0 to 85% was applied within 5.25 min.

The test system of series [3] is human colon cancer (HCT-116). The arrangement: method as in PMID 29772699, PMID 28122174, PMID 27338337, PMID 26506328. Particulars: HCT-116 cell line; cited from earlier work.
Series [4] in a line: Phenyl (Ph) chromatography, logkw from two gradients with DryLab. The conditions noted are these: for logkw, Table S6: Phenyl chromatography, pH 7.4, short and long gradient; for logkwPh: pH 7.4, 40 °C, retention factor extrapolated to 0% organic modifier. It counts as physicochemical.
Excerpt: as §1, §2, §3

Series [5] can be described thus: Cyanopropyl (CN) chromatography, logkw from two gradients with DryLab. Particulars: for logkw, Table S5: Cyanopropyl chromatography, pH 7.4, short and long gradient; for logkwCN: pH 7.4, 40 °C, retention factor extrapolated to 0% organic modifier. It counts as physicochemical.
Excerpt: as §1, §2, §3

Series [6] can be described thus: IAM chromatography (IAM-HPLC), IAM.PC.DD2 column. It counts as physicochemical. Particulars: for logkIAM: logkIAM = 0.045 CHIIAM + 0.42; for logkIAM / CHI (CHIIAM), Table S2: pH 7.4; for CHIIAM: pH 7.4, 30 °C, acetonitrile gradient; for CHI (CHIIAM), Table S2: IAM chromatography, from mean of three retention times.
Excerpt: as §1, §2, §4

The chromatographic logD is a lipophilicity value derived from retention on a column. Low readings indicate lower lipophilicity, high ones higher lipophilicity. By pIC50 is commonly meant the IC50 on a negative log10 scale, so that one unit is a factor of ten.

Each structure is given as a SMILES string.

On to `O=C(Nc1ccc(Cl)cc1)c1cc(S(=O)(=O)Nc2nncc(-c3ccc(C(F)(F)F)cc3)n2)c(SCc2ccccc2)cc1Cl` [Compound 15], for which, in series [1], the “logkw, Table S4” value came to 4.530 and the logkwC8 is 4.53. Besides, in series [2], the chromatographic logD amounted to 3.39 and the CHIC18 is on record as 92.50. The pIC50 in series [3] was 4.19. Also, in series [4], the “logkw, Table S6” value turned out to be 5.074 and the logkwPh is on record as 5.07. Further, in series [5], the “logkw, Table S5” value is reported as 2.642 and the logkwCN is reported as 2.64. In series [6], the logkIAM stood at 2.37 and the CHIIAM worked out at 43.40.

As for `Cc1cc(S(=O)(=O)Nc2nnc(Cc3ccccc3)c(=O)[nH]2)c(SCc2cc3c(cc2Cl)OCO3)cc1Cl` [Compound 11], in series [1], the “logkw, Table S4” value turned out to be 4.074 and the logkwC8 is recorded as 4.07. Moreover, in series [2], the chromatographic logD was found to be 2.75 and the CHIC18 is on record as 80.30. In addition, the pIC50 in series [3] is on record as 4.06. Also, in series [4], the “logkw, Table S6” value was 3.824 and the logkwPh is given as 3.82. Further, in series [5], the “logkw, Table S5” value is 2.130 and the logkwCN is recorded as 2.13. In addition, in series [6], the “CHI (CHIIAM), Table S2” value was found to be 35.5 and the logkIAM was 2.02.

On to `COc1ccc(-c2cnnc(NS(=O)(=O)c3cc(C(=O)Nc4ccc(Cl)cc4)c(Cl)cc3SCc3ccccc3)n2)cc1` [Compound 16], for which, in series [1], the “logkw, Table S4” value is listed as 4.380 and the logkwC8 is listed as 4.38. In series [2], this compound registered a chromatographic logD of 3.04 and a CHIC18 of 85.90. The pIC50 in series [3] was 4.12. Moreover, in series [4], the “logkw, Table S6” value is 4.476 and the logkwPh was 4.48. In addition, in series [5], the “logkw, Table S5” value is 2.471 and the logkwCN is 2.47. Moreover, in series [6], the logkIAM was 2.21 and the CHIIAM was determined as 39.80.

For `Cc1cc(S(=O)(=O)Nc2nncc(-c3cccc(F)c3)n2)c(SCc2ccc(C(F)(F)F)cc2)cc1Cl` [Compound 24], in series [1], the “logkw, Table S4” value was 4.256 and the logkwC8 was 4.26. In series [2], the chromatographic logD stood at 3.13 and the CHIC18 is listed as 87.50. Further, the pIC50 in series [3] is given as 4.17. Besides, in series [4], the “logkw, Table S6” value was found to be 4.088 and the logkwPh is listed as 4.09. Further, in series [5], the “logkw, Table S5” value was 2.277 and the logkwCN is reported as 2.28. Also, in series [6], the “CHI (CHIIAM), Table S2” value is recorded as 38.3 and the logkIAM stood at 2.14.

Consider `Cc1cc(S(=O)(=O)Nc2nncc(-c3ccc(C(F)(F)F)cc3)n2)c(SCc2ccc(C(F)(F)F)cc2)cc1Cl` [Compound 21], for which, in series [1], the “logkw, Table S4” value worked out at 4.440 and the logkwC8 is reported as 4.44. In addition, in series [2], the chromatographic logD was found to be 3.34 and the CHIC18 worked out at 91.60. The pIC50 in series [3] is 4.29. Besides, in series [4], the “logkw, Table S6” value was determined as 4.480 and the logkwPh is reported as 4.48. Moreover, in series [5], the “logkw, Table S5” value worked out at 2.110 and the logkwCN is listed as 2.11. Moreover, in series [6], the logkIAM is reported as 2.28 and the CHIIAM was determined as 41.30.

(Values after article PMC9268166, “Modeling of Anticancer Sulfonamide Derivatives Lipophilicity by Chemometric and Quantitative Structure-Retention Relationships Approaches” (Molecules, 2022).)
